Experimental findings from ChEMBL document CHEMBL4020758, “Anti-atherosclerotic activities of flavonoids from the flowers of Helichrysum arenarium L. MOENCH through the pathway of anti-inflammation” (Bioorg Med Chem Lett, 2017) are described below.

Assay [1] relates to A7R5. As to the kind of experiment: Antiproliferative activity against rat A7r5 cells at 10 uM after 24 hrs by MTT assay. It counts as functional, cell-based. Background: Tetrazolium assays rely on reduction of a dye to a coloured formazan, in cell work by metabolically active cells.
The test system of assay [2] is A7R5. As to the kind of experiment: Antiproliferative activity against rat A7r5 cells at 50 uM after 24 hrs by MTT assay. The assay is classed as functional, cell-based.
Assay [3] has as its system A7R5. The assay can be described thus: Antiproliferative activity against rat A7r5 cells at 100 uM after 24 hrs by MTT assay. It counts as functional, cell-based.
Assay [4] concerns Thoracic aorta. As to the kind of experiment: Anti-atherosclerosis activity in Sprague-Dawley rat thoracic aortic vascular ring endothelial injury model assessed as reduction in vascular endothelial proliferation after 13 days by hematoxylin and eosin staining based assay. The assay is classed as functional, tissue-based.
For assay [5], the system named is Thoracic aorta. The assay can be described thus: Anti-atherosclerosis activity in Sprague-Dawley rat thoracic aortic vascular ring endothelial injury model assessed as decrease in CRP level at 50 uM by ELISA. The assay is classed as functional, tissue-based.
The subject of assay [6] is Thoracic aorta. As to the kind of experiment: Anti-atherosclerosis activity in Sprague-Dawley rat thoracic aortic vascular ring endothelial injury model assessed as decrease in CRP level at 25 uM by ELISA. It counts as functional, tissue-based.
Assay [7] has as its system Thoracic aorta. As to the kind of experiment: Anti-atherosclerosis activity in Sprague-Dawley rat thoracic aortic vascular ring endothelial injury model assessed as decrease in CRP level by ELISA. The assay is classed as functional, tissue-based. For orientation: In an ELISA, binding on a coated surface is turned into a signal by an enzyme label.
The test system of assay [8] is Thoracic aorta. As to the kind of experiment: Anti-atherosclerosis activity in Sprague-Dawley rat thoracic aortic vascular ring endothelial injury model assessed as decrease in VEGF level at 50 uM by ELISA. The assay is classed as functional, tissue-based.
Assay [9] relates to Thoracic aorta. The assay can be described thus: Anti-atherosclerosis activity in Sprague-Dawley rat thoracic aortic vascular ring endothelial injury model assessed as decrease in VEGF level at 25 uM by ELISA. It counts as functional, tissue-based.
In assay [10] the test system is Thoracic aorta. The assay can be described thus: Anti-atherosclerosis activity in Sprague-Dawley rat thoracic aortic vascular ring endothelial injury model assessed as decrease in JNK2 level at 50 uM by ELISA. It counts as functional, tissue-based.
The test system of assay [11] is Thoracic aorta. The assay can be described thus: Anti-atherosclerosis activity in Sprague-Dawley rat thoracic aortic vascular ring endothelial injury model assessed as decrease in JNK2 level at 25 uM by ELISA. It counts as functional, tissue-based.
A further assay deals with RAW264.7. As to the kind of experiment: Anti-inflammatory activity in mouse RAW264.7 cells assessed as inhibition of LPS/IFN-induced NO production at 10 to 20 uM measured 48 hrs post LPS/IFN challenge by Griess assay. It counts as functional, cell-based.
Assay [12] relates to Thoracic aorta. As to the kind of experiment: Anti-atherosclerosis activity in Sprague-Dawley rat thoracic aortic vascular ring endothelial injury model assessed as appearance of smooth vascular endothelial surface after 13 days by hematoxylin and eosin staining based assay. The assay is classed as functional, tissue-based.
Assay [13] has as its system Thoracic aorta. The assay can be described thus: Anti-atherosclerosis activity in Sprague-Dawley rat thoracic aortic vascular ring assessed as restoration of injured vessel after 13 days by hematoxylin and eosin staining based assay. The assay is classed as functional, tissue-based.
The test system of assay [14] is Thoracic aorta. The assay can be described thus: Anti-atherosclerosis activity in Sprague-Dawley rat thoracic aortic vascular ring endothelial injury model assessed as decrease in p38 level at 25 to 50 uM by ELISA. The assay is classed as functional, tissue-based.

Activity calls are given as the source filed them. The rule behind the calls is not given here.

On to `O=c1c(O)c(-c2ccc(O)cc2)oc2cc(O)cc(O)c12`, for which the result in the assay with A7R5 [1], in the assay with A7R5 [3] and in the assay with Thoracic aorta [4] was inactive. Besides, the outcome in the assay with A7R5 [2], in the assay with Thoracic aorta [5], in the assay on Thoracic aorta [6], in the assay on Thoracic aorta [8], in the assay with Thoracic aorta [9] and in the assay with Thoracic aorta [10] was Active. The result with Thoracic aorta [11] and with Thoracic aorta [12] was Active. Further, the Activity result in the assay on Thoracic aorta [7] is “Dose-dependent effect”. In addition, the inhibition result with RAW264.7 was “Active”.

Take `O=c1cc(-c2ccc(O)c(O)c2)oc2cc(O[C@@H]3O[C@H](CO)[C@@H](O)[C@H](O)[C@H]3O)cc(O)c12`: the outcome with A7R5 [1], in the assay with A7R5 [3] and in the assay with Thoracic aorta [4] was inactive. The outcome in the assay with A7R5 [2], in the assay with Thoracic aorta [5], with Thoracic aorta [6], in the assay on Thoracic aorta [8] and in the assay with Thoracic aorta [12] was Active. The inhibition result in the assay with RAW264.7 was “Active”.

Turning to `O=c1cc(-c2ccc(O)c(O)c2)oc2cc(O)cc(O)c12`, the outcome in the assay on A7R5 [1], in the assay on A7R5 [2], with A7R5 [3] and with Thoracic aorta [4] was inactive. Moreover, the outcome in the assay with Thoracic aorta [5], in the assay on Thoracic aorta [6], in the assay with Thoracic aorta [8], in the assay with Thoracic aorta [9] and with Thoracic aorta [12] was Active. For the same compound, the inhibition result in the assay on RAW264.7 was “Active”.

For the compound `O=c1c(O[C@@H]2O[C@H](CO)[C@@H](O)[C@H](O)[C@H]2O)c(-c2ccc(O)cc2)oc2cc(O)cc(O)c12`, the result with A7R5 [1] and in the assay on A7R5 [3] was inactive. In addition, the outcome in the assay on A7R5 [2], in the assay on Thoracic aorta [4], in the assay on Thoracic aorta [5], with Thoracic aorta [6], in the assay with Thoracic aorta [8] and in the assay with Thoracic aorta [10] was Active. For the same compound, the result in the assay with Thoracic aorta [13] and in the assay on Thoracic aorta [12] was Active. Besides, the inhibition entry with RAW264.7 is “Active”.

On to `C[C@@H]1O[C@@H](OC[C@H]2O[C@@H](Oc3cc(O)c4c(c3)O[C@H](c3ccc(O)cc3)CC4=O)[C@H](O)[C@@H](O)[C@@H]2O)[C@H](O)[C@H](O)[C@H]1O`, for which the result in the assay on A7R5 [1], with A7R5 [2], with A7R5 [3] and in the assay on Thoracic aorta [4] was inactive. Further, the result with Thoracic aorta [5], in the assay on Thoracic aorta [8], in the assay with Thoracic aorta [14] and in the assay on Thoracic aorta [12] was Active. The inhibition entry in the assay with RAW264.7 was “Active”.

Take `C[C@@H]1O[C@@H](O[C@H]2[C@H](Oc3cc(O)c4c(c3)O[C@H](c3ccc(O)cc3)CC4=O)O[C@H](CO)[C@@H](O)[C@@H]2O)[C@H](O)[C@H](O)[C@H]1O`: the outcome in the assay on A7R5 [1], with A7R5 [2], in the assay with A7R5 [3] and in the assay with Thoracic aorta [4] was inactive. The result in the assay on Thoracic aorta [5], with Thoracic aorta [8], in the assay with Thoracic aorta [10], with Thoracic aorta [14] and in the assay with Thoracic aorta [12] was Active. Also, the inhibition entry in the assay with RAW264.7 was “Active”.

As to `O=C1C[C@@H](c2ccc(O)c(O)c2)Oc2cc(O)cc(O)c21`, the outcome with A7R5 [1], with A7R5 [3] and in the assay on Thoracic aorta [4] was inactive. Besides, the outcome with A7R5 [2], with Thoracic aorta [5], with Thoracic aorta [6], in the assay with Thoracic aorta [8], in the assay with Thoracic aorta [10] and with Thoracic aorta [14] was Active. Also, the result in the assay with Thoracic aorta [12] was Active. Besides, in the assay on RAW264.7, the inhibition entry was “Active”.
